According to patent publication US7771727B2, “Conjugates of therapeutic or cytotoxic agents and biologically active peptides” (The Administrators of the Tulane Educational Fund, priority 2002, dated 2010):
“Also recorded” adds a separate entry of the source. Where two headings read alike, the source gives them in different places. Numbered stars: 1 amine (or outer) side, 2 acyl side, 3 side chain; on linkers, the order of the positions; unused ones are H or OH. Bridge positions count the residues as written; N and C are the ends. Square brackets hold non-standard residues; d marks the D form. Peptide text beside a SMILES is read from it. * marks the point of attachment. Camptothecin(20S-OCO) = CC[C@@]1(OC(=O)*)C(=O)OCc2c1cc1n(c2=O)Cc2cc3ccccc3nc2-1; NGly(2-(methylamino)ethyl) = CN(CCN(CC(=O)[*:2])[*:1])[*:3]; X1 = COc1ccc(/C=C\c2cc(OC)c(OC)c(OC)c2)cc1OC(=O)*; Gly(N-2-aminoethyl) = NCCNCC(=O)O; X2 = CN(C)CCN(CC(=O)[*:2])[*:1]; Gly(N(CH2)3NH2) = NCCCNCC(=O)O; Gly(N-CH2CH2OH) = O=C(O)CNCCO; Nle = CCCC[C@H](N)C(=O)O

What was measured:
[1] = test system: human neuroblastoma IMR32 cells (somatostatin receptor overexpression); assay: MTT cytotoxicity assay, IMR-32 cells; details: for cytotoxic activity: 3 days
Protocol: The cytotoxic activities of these conjugates were measured using a standard MTT assay kit (Promega Corporation, Madison, Wis.). Each compound was incubated for 3 days with human neuroblastoma IMR32 cells (somatostatin receptor overexpression) at different concentrations in quadruplate and IC50's were generated from the dose-response curves (FIG. 2).

[2] = camptothecin: tertiary hydroxyl, ring position 20; combretastatin: phenolic hydroxyl; cited from earlier work
[3] = physchem; details: for Half Life Phosphate Buffer / half-life: buffer
Protocol: (§1) Each peptide conjugate was subjected to phosphate buffer and rat serum stability studies. The analogues were incubated in either 0.1 M phosphate buffer or fresh rat serum at 37° C. and aliquots were taken at different time points and examined by HPLC.

[4] = in vitro
Protocol: as §1

[5] = test system: GH release from monolayer cultures of rat pituitary cells; assay type: cell-based; details: read-out: Growth Hormone Inhibition IC50
[6] = test system: tumor; assay: Preliminary tumor bearing animal studies; assay type: in vivo; details: repeated intraperitoneal administration
[7] = test system: NCI-H69 small cell lung carcinomas (expression of SSTR2); details: nude mice; doses far below the maximum tolerated equivalent doses of camptothecin alone
[8] = Homo sapiens, IMR-32, 72 h, read-out: Cytotoxicity IC50, IMR-32 Cells
[9] = phosphate buffer, length of the experiment 50 h

Question: Which IC50 [1, 8] does the source give for `CC[C@@]1(O)C(=O)OCc2c1cc1n(c2=O)Cc2cc3ccccc3nc2-1` [Camptothecin, reference compound] here?
Answer: 2.21 ± 0.44 nM

Question: What about the “pKa of hydroxyl group” value [2] of the same compound?
Answer: approximately 18

Question: With `COc1ccc(C[C@@H](O)c2cc(OC)c(OC)c(OC)c2)cc1O` [Combretastatin, reference compound] as the compound, how does the IC50 [1, 8] read?
Answer: 4.36 nM

Question: And the “pKa of hydroxyl group” value [2]?
Answer: approximately 10.3

Question: For `CCCC[C@H](NC(=O)[C@@H](CO)NC(=O)CN(CCN)C(=O)O[C@]1(CC)C(=O)OCc2c1cc1n(c2=O)Cc2cc3ccccc3nc2-1)C(=O)N[C@H](Cc1ccc(O)cc1)C(=O)N[C@H](CO)C(=O)N[C@H]1CSSC[C@@H](C(=O)N[C@H](C(N)=O)[C@@H](C)O)NC(=O)[C@H]([C@@H](C)O)NC(=O)[C@H](CCCCN)NC(=O)[C@@H](Cc2c[nH]c3ccccc23)NC(=O)[C@H](Cc2ccccc2)NC1=O` [Compound 1, camptothecin-carbonyl-N-(2-aminoethyl)-glycine-D-Ser-Nle-D-Tyr-D-Ser-cyclo[Cys-Phe-D-Trp-Lys-Thr-Cys]-Thr-amide] ({Camptothecin(20S-OCO)}-[Gly(N-2-aminoethyl)][dS][Nle][dY][dS]CF[dW]KTCT-NH2; disulfide 6-11), which “cytotoxic potency relative to compound 2” value ([1]; IMR32 cells) is on record?
Answer: seven times less potent than compound 2

Question: What about the “cytotoxic activity” value ([1]; IMR32 cells) of the same compound?
Answer: next most potent; also recorded: high cytotoxicity

Question: What about the “stability to cell media incubation conditions” value ([1]; cell media) of the same compound?
Answer: very stable

Question: And the IC50 ([1]; human)?
Answer: 374 ± 18 nM

Question: And the “buffer stability” value [3, 9]?
Answer: complete buffer stability

Question: And the half-life ([4]; rat, serum)?
Answer: 106 h

Question: What about the “rat serum stability” value ([4]; rat, serum) of the same compound?
Answer: most stable

Question: What about the IC50 ([5]; rat pituitary cells) of the same compound?
Answer: 0.32 ± 0.02 nM

Question: What about the “cytotoxic effect in the tumor” value [6] of the same compound?
Answer: equally effective

Question: Which “stability to cell media incubation conditions” value [1] does the source give for `CCCC[C@H](NC(=O)[C@@H](CO)NC(=O)CN(CCNC)C(=O)O[C@]1(CC)C(=O)OCc2c1cc1n(c2=O)Cc2cc3ccccc3nc2-1)C(=O)N[C@H](Cc1ccc(O)cc1)C(=O)N[C@H](CO)C(=O)N[C@H]1CSSC[C@@H](C(=O)N[C@H](C(N)=O)[C@@H](C)O)NC(=O)[C@H]([C@@H](C)O)NC(=O)[C@H](CCCCN)NC(=O)[C@@H](Cc2c[nH]c3ccccc23)NC(=O)[C@H](Cc2ccccc2)NC1=O` [Compound 2, camptothecin-carbonyl-N-(N-methyl-2-aminoethyl)-glycine-D-Ser-Nle-D-Tyr-D-Ser-cyclo[Cys-Phe-D-Trp-Lys-Thr-Cys]-Thr-amide] ({Camptothecin(20S-OCO)}-[NGly(2-(methylamino)ethyl)][dS][Nle][dY][dS]CF[dW]KTCT-NH2; disulfide 6-11) here?
Answer: very stable

Question: And the IC50 ([1]; human)?
Answer: 54.2 ± 6 nM

Question: And the “Half Life Phosphate Buffer” value [3]?
Answer: 123 h

Question: And the half-life [3]?
Answer: ~120 h

Question: What about the “Half-Life Rat Serum” value ([4]; rat, serum) of the same compound?
Answer: 18 h

Question: What about the half-life ([4]; rat, serum) of the same compound?
Answer: 18 h

Question: What about the IC50 [5] of the same compound?
Answer: 0.27 ± 0.02 nM

Question: What about the “cytotoxic effect in the tumor” value [6] of the same compound?
Answer: equally effective

Question: What about the “growth of transplanted NCI-H69 small cell lung carcinomas” value [7] of the same compound?
Answer: significantly stabilize the growth

Question: With `CCCC[C@H](NC(=O)[C@@H](CO)NC(=O)CN(CCN(C)C)C(=O)O[C@]1(CC)C(=O)OCc2c1cc1n(c2=O)Cc2cc3ccccc3nc2-1)C(=O)N[C@H](Cc1ccc(O)cc1)C(=O)N[C@H](CO)C(=O)N[C@H]1CSSC[C@@H](C(=O)N[C@H](C(N)=O)[C@@H](C)O)NC(=O)[C@H]([C@@H](C)O)NC(=O)[C@H](CCCCN)NC(=O)[C@@H](Cc2c[nH]c3ccccc23)NC(=O)[C@H](Cc2ccccc2)NC1=O` [Compound 3] ({Camptothecin(20S-OCO)}-[X2][dS][Nle][dY][dS]CF[dW]KTCT-NH2; disulfide 6-11) as the compound, how does the IC50 ([1]; human) read?
Answer: 571 ± 48 nM

Question: What about the “buffer stability” value [3] of the same compound?
Answer: complete buffer stability

Question: What about the “Half Life Phosphate Buffer” value [3] of the same compound?
Answer: Stable

Question: What about the “rat serum stability” value [4] of the same compound?
Answer: most stable

Question: And the half-life ([4]; rat, serum)?
Answer: 59 h

Question: What about the IC50 [5] of the same compound?
Answer: 0.3 ± 0.04 nM

Question: Which IC50 ([1]; human) does the source give for `CCCC[C@H](NC(=O)[C@@H](CO)NC(=O)CN(CCCN)C(=O)O[C@]1(CC)C(=O)OCc2c1cc1n(c2=O)Cc2cc3ccccc3nc2-1)C(=O)N[C@H](Cc1ccc(O)cc1)C(=O)N[C@H](CO)C(=O)N[C@H]1CSSC[C@@H](C(=O)N[C@H](C(N)=O)[C@@H](C)O)NC(=O)[C@H]([C@@H](C)O)NC(=O)[C@H](CCCCN)NC(=O)[C@@H](Cc2c[nH]c3ccccc23)NC(=O)[C@H](Cc2ccccc2)NC1=O` [Compound 4] ({Camptothecin(20S-OCO)}-[Gly(N(CH2)3NH2)][dS][Nle][dY][dS]CF[dW]KTCT-NH2; disulfide 6-11) here?
Answer: > 1000 nM

Question: What about the “buffer stability” value [3, 9] of the same compound?
Answer: complete buffer stability

Question: What about the half-life ([4]; rat, serum) of the same compound?
Answer: 72 h

Question: And the “rat serum stability” value ([4]; rat, serum)?
Answer: most stable

Question: And the IC50 ([5]; rat pituitary cells)?
Answer: 0.26 ± 0.03 nM

Question: What does the source list for `CCCC[C@H](NC(=O)[C@@H](CO)NC(=O)CN(CCO)C(=O)O[C@]1(CC)C(=O)OCc2c1cc1n(c2=O)Cc2cc3ccccc3nc2-1)C(=O)N[C@H](Cc1ccc(O)cc1)C(=O)N[C@H](CO)C(=O)N[C@H]1CSSC[C@@H](C(=O)N[C@H](C(N)=O)[C@@H](C)O)NC(=O)[C@H]([C@@H](C)O)NC(=O)[C@H](CCCCN)NC(=O)[C@@H](Cc2c[nH]c3ccccc23)NC(=O)[C@H](Cc2ccccc2)NC1=O` [Compound 5] ({Camptothecin(20S-OCO)}-[Gly(N-CH2CH2OH)][dS][Nle][dY][dS]CF[dW]KTCT-NH2; disulfide 6-11)?
Answer: IC50 ([1]; human): > 1000 nM; IC50 [5]: 0.49 ± 0.1 nM

Question: For `CCCC[C@H](NC(=O)[C@@H](CO)NC(=O)CN(CCN)C(=O)Oc1cc(/C=C\c2cc(OC)c(OC)c(OC)c2)ccc1OC)C(=O)N[C@H](Cc1ccc(O)cc1)C(=O)N[C@H](CO)C(=O)N[C@H]1CSSC[C@@H](C(=O)N[C@H](C(N)=O)[C@@H](C)O)NC(=O)[C@H]([C@@H](C)O)NC(=O)[C@H](CCCCN)NC(=O)[C@@H](Cc2c[nH]c3ccccc23)NC(=O)[C@H](Cc2ccccc2)NC1=O` [Compound 6, combretastatin-carbonyl-N-(2-aminoethyl)-glycine-D-Ser-Me-D-Tyr-D-Ser-cyclo[Cys-Phe-D-Trp-Lys-Thr-Cys]-Thr-amide] (X1-[Gly(N-2-aminoethyl)][dS][Nle][dY][dS]CF[dW]KTCT-NH2; disulfide 6-11), which “cytotoxic activity” value ([1]; IMR32 cells) is on record?
Answer: most cytotoxic

Question: And the IC50 ([1]; read-out: Cytotoxicity IC50, IMR-32 Cells, 3 days incubation, MTT assay)?
Answer: 2.79 ± 0.33 nM

Question: And the half-life [3]?
Answer: 30 h

Question: What about the “conjugate that is free cytotoxin after 3 days” value ([3]; from stability data in buffer, after 3 days) of the same compound?
Answer: 50%

Question: And the “Half-Life Rat Serum” value ([4]; fresh rat serum, 37° C.)?
Answer: 4 h

Question: And the half-life ([4]; rat, serum)?
Answer: 4 h

Question: What about the IC50 ([5]; rat pituitary cells) of the same compound?
Answer: 0.31 ± 0.1 nM
